# Counter-ions that a name gives are not always drawn.
# Target: T1, recombinant guanylate cyclase reporter cell line (Rattus norvegicus, UniProt P19686+P20595)
# T1 construct: expressed in transfected cells
# T1 sequence (P19686 1-690): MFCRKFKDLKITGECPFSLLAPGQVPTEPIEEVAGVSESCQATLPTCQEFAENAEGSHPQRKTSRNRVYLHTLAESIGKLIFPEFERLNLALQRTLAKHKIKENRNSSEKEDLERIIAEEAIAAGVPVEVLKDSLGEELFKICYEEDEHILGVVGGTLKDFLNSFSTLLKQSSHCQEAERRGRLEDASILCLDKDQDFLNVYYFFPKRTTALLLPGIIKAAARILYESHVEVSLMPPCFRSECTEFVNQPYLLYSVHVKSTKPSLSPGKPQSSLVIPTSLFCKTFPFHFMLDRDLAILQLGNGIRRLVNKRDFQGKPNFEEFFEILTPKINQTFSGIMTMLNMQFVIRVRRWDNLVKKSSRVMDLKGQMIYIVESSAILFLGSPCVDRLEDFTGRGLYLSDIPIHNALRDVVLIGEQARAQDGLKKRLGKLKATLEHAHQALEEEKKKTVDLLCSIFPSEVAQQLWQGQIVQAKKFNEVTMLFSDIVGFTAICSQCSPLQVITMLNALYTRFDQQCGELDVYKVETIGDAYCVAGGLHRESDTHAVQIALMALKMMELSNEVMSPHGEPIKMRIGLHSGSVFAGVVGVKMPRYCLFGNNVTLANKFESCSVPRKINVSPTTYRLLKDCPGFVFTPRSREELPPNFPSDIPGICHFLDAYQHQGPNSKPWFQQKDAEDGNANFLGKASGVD
# T1 sequence (P20595 1-619): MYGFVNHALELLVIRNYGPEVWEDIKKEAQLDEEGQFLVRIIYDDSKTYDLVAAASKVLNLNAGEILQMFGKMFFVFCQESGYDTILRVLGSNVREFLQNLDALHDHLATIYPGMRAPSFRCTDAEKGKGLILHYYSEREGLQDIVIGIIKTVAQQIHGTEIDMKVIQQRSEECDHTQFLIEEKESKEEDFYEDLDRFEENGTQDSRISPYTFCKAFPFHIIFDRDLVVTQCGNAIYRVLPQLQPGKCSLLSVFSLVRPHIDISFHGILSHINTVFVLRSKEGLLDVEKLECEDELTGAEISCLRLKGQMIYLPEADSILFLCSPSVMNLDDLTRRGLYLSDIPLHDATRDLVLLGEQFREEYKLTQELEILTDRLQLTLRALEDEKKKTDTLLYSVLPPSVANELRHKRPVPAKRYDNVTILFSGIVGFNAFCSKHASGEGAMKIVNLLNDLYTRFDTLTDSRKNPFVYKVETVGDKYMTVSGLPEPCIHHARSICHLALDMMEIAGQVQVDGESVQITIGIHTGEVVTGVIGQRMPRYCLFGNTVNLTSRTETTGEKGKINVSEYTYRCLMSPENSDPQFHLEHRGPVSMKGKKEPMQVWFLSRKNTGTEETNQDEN
# Test: Effect on a recombinant guanylate cyclase reporter cell line (B-2)
# Format: cell-based
# Conditions: in some cases mean values for individual determinations
# Procedure: B-2. Effect on a Recombinant Guanylate Cyclase Reporter Cell Line
# The cellular effect of the inventive compounds is determined using a recombinant guanylate cyclase reporter cell line, as described in F. Wunder et al., Anal. Biochem. 339, 104-112 (2005).
# Representative MEC values (MEC=minimum effective concentration) for the inventive compounds are shown in the table below (in some cases as mean values for individual determinations): […]
row,MEC (minimum effective concentration) [µM],SMILES
1,3.0,"Cc1cc(OCc2c(F)cccc2F)n2nc(C)c(C(=O)NC[C@H]3CC[C@H](C(=O)O)CC3)c2c1 [Example 36, trans-4-{[({7-[(2,6-Difluorobenzyl)oxy]-2,5-dimethylpyrazolo[1,5-a]pyridin-3-yl}carbonyl)amino]methyl}cyclohexanecarboxylic Acid]"
2,0.3,"CCC(C)(N)CNC(=O)c1c(C2CC2)nn2c(OCc3c(F)cccc3F)cc(C)cc12 (single isomer, unassigned) [Example 54, ent-N-(2-Amino-2-methylbutyl)-2-cyclopropyl-7-[(2,6-difluorobenzyl)oxy]-5-methylpyrazolo[1,5-a]pyridine-3-carboxamide]"
3,3.0,"Cc1cc(OCc2c(F)cccc2F)n2nc(C)c(C(=O)NOCCO)c2c1 [Example 64, 7-[(2,6-Difluorobenzyl)oxy]-N-(2-hydroxyethoxy)-2,5-dimethylpyrazolo[1,5-a]pyridine-3-carboxamide trifluoroacetate]"
4,0.3,"Cc1cc(OCc2c(F)cccc2F)n2nc(C)c(C(=O)NCC(C)(N)CC(C)C)c2c1 (racemic) [Example 92, rac-N-(2-Amino-2,4-dimethylpentyl)-7-[(2,6-difluorobenzyl)oxy]-2,5-dimethylpyrazolo[1,5-a]pyridine-3-carboxamide]"
5,0.3,"Cc1cc(OCc2c(F)cccc2F)n2nc(C)c(C(=O)NCC(C)(N)CCC(F)(F)F)c2c1 (single isomer, unassigned) [Example 42, ent-N-(2-Amino-5,5,5-trifluoro-2-methylpentyl)-7-[(2,6-difluorobenzyl)oxy]-2,5-dimethylpyrazolo[1,5-a]pyridine-3-carboxamide]"
6,0.3,"Cc1cc(OCc2c(F)cccc2F)n2nc(C)c(C(=O)NC3CCOc4c(Cl)cccc43)c2c1 (racemic) [Example 147, rac-N-(8-Chloro-3,4-dihydro-2H-chromen-4-yl)-7-[(2,6-difluorobenzyl)oxy]-2,5-dimethylpyrazolo[1,5-a]pyridine-3-carboxamide]"
7,1.0,"CCOC(=O)NCCNC(=O)c1c(C)nn2c(OCc3c(F)cccc3F)cc(C)cc12 [Example 106, Ethyl {2-[({7-[(2,6-difluorobenzyl)oxy]-2,5-dimethylpyrazolo[1,5-a]pyridin-3-yl}carbonyl)amino]ethyl}carbamate]"
8,3.0,"Cc1cc(OCc2c(F)cccc2F)n2nc(C)c(C(=O)NCC(N)C#N)c2c1 (racemic) [Example 59, rac-N-(2-Amino-2-cyanoethyl)-7-[(2,6-difluorobenzyl)oxy]-2,5-dimethylpyrazolo[1,5-a]pyridine-3-carboxamide]"
9,0.3,"COC(=O)C12CCC(NC(=O)c3c(C)nn4c(OCc5c(F)cccc5F)cc(C)cc34)(CC1)CC2 [Example 152, methyl 4-[({7-[(2,6-difluorobenzyl)oxy]-2,5-dimethylpyrazolo[1,5-a]pyridin-3-yl}carbonyl)amino]bicyclo[2.2.2]octane-1-carboxylate]"
10,3.0,"Cc1cc(OCc2c(F)cccc2F)n2nc(C)c(C(=O)NCC(N)c3ccc(C)o3)c2c1 (racemic) [Example 104, rac-N-[2-Amino-2-(5-methyl-2-furyl)ethyl]-7-[(2,6-difluorobenzyl)oxy]-2,5-dimethylpyrazolo[1,5-a]pyridine-3-carboxamide]"
11,1.0,"Cc1cc(OCc2c(F)cccc2F)n2nc(C)c(C(=O)NCCCCCC#N)c2c1 [Example 63, N-(5-Cyanopentyl)-7-[(2,6-difluorobenzyl)oxy]-2,5-dimethylpyrazolo[1,5-a]pyridine-3-carboxamide]"
12,1.0,"Cc1cc(OCc2c(F)cccc2F)n2nc(C)c(C(=O)N[C@@H](CO)c3ccc(C)o3)c2c1 [Example 177, 7-[(2,6-Difluorobenzyl)oxy]-N-[(1S)-2-hydroxy-1-(5-methy1-2-furyl)ethyl]-2,5-dimethylpyrazolo[1,5-a]pyridine-3-carboxamide]"

# More lines, now with the values behind:
row,SMILES,MEC (minimum effective concentration) [µM]
1,"Cc1cc(OCc2c(F)cccc2F)n2nc(C)c(C(=O)NC3CCCc4c(N)cccc43)c2c1 (racemic) [Example 139, rac-N-(5-Amino-1,2,3,4-tetrahydronaphthalen-1-y1)-74(2,6-difluorobenzyl)oxy]-2,5-dimethylpyrazolo[1,5-a]pyridine-3-carboxamide]",1.0
2,"C=Cc1cccc(C(N)CNC(=O)c2c(C)nn3c(OCc4c(F)cccc4F)cc(C)cc23)c1 (racemic) [Example 141, rac-N-[2-Amino-2-(3-vinylphenyl)ethyl]-7-[(2,6-difluorobenzyl)oxy]-2,5-dimethylpyrazolo[1,5-a]pyridine-3-carboxamide]",3.0
3,"CCCC(C)(N)CNC(=O)c1c(C(F)(F)F)nn2c(OCc3c(F)cccc3F)cc(C)cc12 (single isomer, unassigned) [Example 52, ent-N-(2-Amino-2-methylpentyl)-7-[(2,6-difluorobenzyl)oxy]-5-methyl-2-(trifluoromethyl)pyrazolol[1,5-a]pyridine-3-carboxamide trifluoroacetate]",0.3
4,"Cc1cc(OCc2c(F)cccc2F)n2nc(C)c(C(=O)NC3CCOc4ccccc43)c2c1 (racemic) [Example 87, rac-7-[(2,6-Difluorobenzyl)oxy]-N-(3,4-dihydro-2H-chromen-4-yl)-2,5-dimethylpyrazolo[1,5-a]pyridine-3-carboxamide]",0.3
5,"Cc1cc(OCc2c(F)ccc(F)c2F)n2nc(C)c(C(=O)Nc3cnn(CCO)c3)c2c1 [Example 33, N-[1-(2-Hydroxyethyl)-1H-pyrazol-4-yl] -2,5-dimethyl-7-[(2,3,6-trifluorobenzyl)oxy]pyrazolo[1,5-a]pyridine-3-carboxamide]",3.0
6,"Cc1cc(OCc2c(F)cccc2F)n2nc(C)c(C(=O)NC3CCC(C)(C)c4ccccc43)c2c1 (racemic) [Example 145, rac-7-[(2,6-Difluorobenzyl)oxy]-N-(4,4-dimethyl-1,2,3,4-tetrahydronaphthalen-1-yl)-2,5-dimethylpyrazolo[1,5-a]pyridine-3-carboxamide]",1.0
7,"Cc1cc(OCc2c(F)ccc(F)c2F)n2nc(C)c(C(=O)N[C@@H](CO)C(=O)Nc3ccc4ccccc4c3)c2c1 [Example 7, N-[(2S)-3-Hydroxy-1-(2-naphthylamino)-1-oxopropan-2-yl]-2,5-dimethyl-7-[(2,3,6-trifluorobenzyl)oxy]pyrazolo[1,5-a]pyridine-3-carboxamide]",1.0
8,"Cc1cc(OCc2c(F)cccc2F)n2nc(C)c(C(=O)NC3CC(=O)N(C)c4ccccc43)c2c1 (racemic) [Example 77, rac-7-[(2,6-Difluorobenzyl)oxy]-2,5-dimethyl-N-(1-methyl-2-oxo-1,2,3,4-tetrahydroquinolin-4-yl)pyrazolo[1,5-a]pyridine-3-carboxamide trifluoroacetate]",0.3
9,"Cc1cc(OCc2c(F)cccc2F)n2nc(C3CC3)c(C(=O)NCC(C)(N)CCC(F)(F)F)c2c1 (single isomer, unassigned) [Example 58, ent-N-(2-Amino-5,5,5-trifluoro-2-methylpentyl)-2-cyclopropyl-7-[(2,6-difluorobenzyl)oxy]-5-methylpyrazolo[1,5-a]pyridine-3-carboxamide]",0.03
10,"Cc1cc(OCc2c(F)cccc2F)n2nc(C)c(C(=O)NC3CCN(C)c4ccccc43)c2c1 (racemic) [Example 75, rac-7-[(2,6-Difluorobenzyl)oxy]-2,5-dimethyl-N-(1-methyl-1,2,3,4-tetrahydroquinolin-4-yl)pyrazolo a]pyridine-3-carboxamide trifluoroacetate]",0.03

# — patent publication US9422285B2, “Substituted pyrazolo[1,5-A]-pyridine-3-carboxamides and use thereof” (Bayer Pharma Aktiengesellschaft, priority 2014, dated 2016)
